Tests used:
Assay type in all cases: cell-based, human
hESCs [1] = assay: Quantitative RT-PCR (QPCR) of transcript accumulation in hESCs differentiated through Stages 1-4
Description: Culture of undifferentiated hESCs or human iPS (hiPS) cells. Cell lines used were NIH-approved H1 (WA01) and H9 (WA09) between passage 18 and 42, though hiPS cell lines derived from iPS (IMR-90)-4-MCB-1, iPS (Foreskin)-1-MCB-1, and DF 19-9-7T-MCB-01 may be used, as well as mouse ES cells.
Chemically defined medium comprised 80% DMEM/F12 and 20% Knockout serum replacement supplemented with 1 mM L-glutamine, 1% nonessential amino acids, 0.1 mM 2-mercaptoethanol and 4 ng/ml bFGF (all from Invitrogen). hESCs were cultured in 6-well plates on a feeder layer of irradiated MEFs, and the medium was refreshed daily. When the cells were nearly confluent, the ES cell colonies were split and passaged by detaching them from the feeder layer with 2 mg/ml dispase (Invitrogen). The colonies were then rinsed off the plates and filtered through a 70 μm cell strainer to remove MEFs. The colonies remained in the strainer. The retained cells were rinsed, pipetted into small pieces, and plated on growth factor-depleted Matrigel™ (BD Biosciences) at a density of 70% to 80% confluence in MEF-conditioned media.
Stage 1. On the day after splitting, differentiation was initiated by replacing the medium with medium containing 100 ng/ml bFGF, 100 ng/ml Activin A and 50 ng/ml BMP4 (FAB) in DMEM/F12 supplemented with 2% BSA, 1 mML-glutamine, 1% nonessential amino acids and 0.1 mM 2-mercaptoethanol for 3 to 4 days. The medium was refreshed daily.
(§1) Stage 2. FAB-treated cells were detached from the plate with 2 mg/ml dispase and grown in suspension as cell aggregates in MEF-conditioned medium (CM) for 2 days. On the third day, the medium was switched to DMEM/F12 with ITS supplement (BD, 5 μg/ml insulin+5 μg/ml transferrin+5 ng/ml selenous acid) and 50 ng/ml bFGF for 12 days in suspension culture dishes. The medium was refreshed every 2 days.
Stage 3. Cell aggregates were transferred to a 15 ml centrifuge tube and allowed to settle by gravity. The medium was aspirated, and the pellet-containing tube placed on ice. Two milligrams of Matrigel™ were diluted with 3 ml of cold DMEM/F12 added to the pellet at a density of 50 to 100 cell aggregates/ml. One half milliliter of this diluted Matrigel™/cell aggregate mixture was added onto a coverslip previously loaded into wells of a 24-well plate and incubated overnight at 37° C. in 5% CO2.
Nongelled Matrigel™ was aspirated from the wells and ITSFINE medium, a serum-free medium comprised of DMEM/F12 with ITS, 10 ng/ml FGF7 (R&D), 200 nM INGAP (PSN-4765, sequence: IGLHDPSHGTLPNGS), 10 mM nicotinamide (Sigma), 10 nM exendin-4 (Sigma), 4 μg/ml insulin (Gibco) and 2 g/L BSA (Sigma) was added for 21 to 28 days. The medium was refreshed every other day. As an alternative to DMEM/F12 only, DMEM/F12 may be used for the first 14 days of culture followed by 14 days of RPMI1640 as the base medium.
Stage 4. The sphere-structured cell masses were washed and the medium was replaced with RPMI1640 supplemented with 1×B27 (Invitrogen) and 10 mM nicotinamide for 1 to 2 weeks. Alternatively, the sphere-structured cell masses may be dislodged with 2 mg/ml dispase (two hundred microliters of per well of a 24-well plate), rinsed off the plate, and placed in suspension culture dishes in DMEM/F12 supplemented with 1×B27 and 10 mM nicotinamide for 1 to 2 weeks.
Total cellular RNA was extracted with Trizol (Invitrogen). cDNA was synthesized from 1 μg total RNA using a SuperScript First-Strand Synthesis kit (Invitrogen). Quantitative real time RT-PCR (QPCR) was performed using Assays-on-demand agents (Applied Biosystems) on an ABI PRISM 7700 Sequence Detection System (Applied Biosystems) for the following transcripts: foxa2, sox17, brachyury, ngn3, pdx1, insulin, glucagon, glut2 and an endogenous control, β-actin (see Table No. 2 for assay numbers). QPCR was performed according to the equipment manufacturer's instructions. Relative quantification was carried out using the comparative cycle threshold (CT) method recommended by the supplier. […]

hESCs [2] = assay: Trophoblast differentiation (hCG and CDX2 expression); conditions: for cdx2 expression at Stage 1: compared to undifferentiated hESCs
Description: FIG. 3 illustrates how treatment of hESCs with BMP4 and/or bFGF influences cell fate. Cultures of adherent, undifferentiated hESCs grown in MEF-conditioned media were treated for 1, 4, or 7 days and then assayed for human chorionic gonadotropin (hCG) protein expression (a) or hCG transcript accumulation by QPCR (b). For QPCR results, the fold change values and statistical analyses were calculated by comparing treated cells with cells grown to the same time point but without added growth factors (ctrl). B10, 10 ng/ml BMP4; B50, 50 ng/ml BMP4; B100, 100 ng/ml BMP4; B10F, 10 ng/ml BMP4+100 ng/ml bFGF; B50F, 50 ng/ml BMP4+100 ng/ml bFGF; B100F, 100 ng/ml BMP4+100 ng/ml bFGF. *, p<0.05; **, p<0.01.
FIG. 4 illustrates the expression of cdx2 transcript at Stage 1. Fold change values compared to undifferentiated hESCs are shown. […] CM, conditioned media; F, bFGF; A, Activin A; B, BMP4; inhib, SB431542 Activin signaling inhibitor; D/F, DMEM/F12; I, insulin. See Materials and Methods for growth factor concentrations.
(§2) Total cellular RNA was extracted with Trizol (Invitrogen). cDNA was synthesized from 1 μg total RNA using a SuperScript First-Strand Synthesis kit (Invitrogen). Quantitative real time RT-PCR (QPCR) was performed using Assays-on-demand agents (Applied Biosystems) on an ABI PRISM 7700 Sequence Detection System (Applied Biosystems) for the following transcripts: foxa2, sox17, brachyury, ngn3, pdx1, insulin, glucagon, glut2 and an endogenous control, β-actin (see Table No. 2 for assay numbers). QPCR was performed according to the equipment manufacturer's instructions. Relative quantification was carried out using the comparative cycle threshold (CT) method recommended by the supplier. Fold change was calculated as: 2^−ΔΔCT. Mean ΔΔCT values from QPCR analyses were compared using the unpaired, two-tailed Student's t-test. P values <0.05 were considered significant.

hESC = assay: Q-PCR CTs of pancreas-associated transcripts in BMP4-treated, differentiated hESC
Description: as §2

hESCs [3] = assay: Embryoid body formation and pancreatic differentiation in suspension culture
Description: as §1

NC(=O)c1ccc(-c2nc(-c3ccc4c(c3)OCO4)c(-c3ccccn3)[nH]2)cc1 [SB431542, reference compound]
expression of gsc, Mixl1, Brachyury and FOXA2 (hESCs [1]; added to cells treated with bFGF+BMP4 in CM): completely inhibited expression

BMP4: bone morphogenetic protein 4, member of the TGFβ superfamily
endoderm- (sox17, foxa2, pdx1) and pancreas-associated (pdx1, insulin) transcripts in EBs (hESCs [1]; hESCs grown on MEFs, 50 ng/ml): increased
cdx2 expression at Stage 1 (hESCs [2]): increase in cdx2 expression
trophoblast differentiation (hCG and CDX2 expression) (hESCs [2]; higher concentrations, alone, 7 days): high proportion of trophoblast differentiation
Q-PCR CT of Foxa2 (hESC; EB14): 24.0
Q-PCR CT of Glucagon (hESC; EB14): 28.7
Q-PCR CT of Glut2 (hESC; EB14): 23.0
Q-PCR CT of Insulin (hESC; EB14): 34.6
Q-PCR CT of Pdx1 (hESC; EB14): 26.7
Q-PCR CT of T (hESC; EB14): 25.4
Q-PCR CT of β-actin (hESC; EB14): 15.0
Q-PCR CT of Foxa2 (hESC; EB14 + 14): 23.1
Q-PCR CT of Glucagon (hESC; EB14 + 14): 22.0
Q-PCR CT of Glut2 (hESC; EB14 + 14): 22.0
Q-PCR CT of Insulin (hESC; EB14 + 14): 28.4
Q-PCR CT of Pdx1 (hESC; EB14 + 14): 23.9
Q-PCR CT of T (hESC; EB14 + 14): 27.9
Q-PCR CT of β-actin (hESC; EB14 + 14): 14.7
Q-PCR CT of Foxa2 (hESC; EB14 + 21): 23.0
Q-PCR CT of Glucagon (hESC; EB14 + 21): 21.0
Q-PCR CT of Glut2 (hESC; EB14 + 21): 21.1
Q-PCR CT of Insulin (hESC; EB14 + 21): 27.8
Q-PCR CT of Pdx1 (hESC; EB14 + 21): 24.3
Q-PCR CT of T (hESC; EB14 + 21): 28.4
Q-PCR CT of β-actin (hESC; EB14 + 21): 14.9
Q-PCR CT of Foxa2 (hESC; EB14 + 28): 22.7
Q-PCR CT of Glucagon (hESC; EB14 + 28): 20.2
Q-PCR CT of Glut2 (hESC; EB14 + 28): 20.4
Q-PCR CT of Insulin (hESC; EB14 + 28): 26.0
Q-PCR CT of Pdx1 (hESC; EB14 + 28): 23.0
Q-PCR CT of T (hESC; EB14 + 28): 28.5
Q-PCR CT of β-actin (hESC; EB14 + 28): 15.4
Q-PCR CT of Foxa2 (hESC; hESC + BMP4): 25.6
Q-PCR CT of Glucagon (hESC; hESC + BMP4): >50
Q-PCR CT of Glut2 (hESC; hESC + BMP4): 32.8
Q-PCR CT of Insulin (hESC; hESC + BMP4): >50
Q-PCR CT of Pdx1 (hESC; hESC + BMP4): 36.4
Q-PCR CT of T (hESC; hESC + BMP4): 25.6
Q-PCR CT of β-actin (hESC; hESC + BMP4): 15.0

insulin: a PI3K agonist, component of serum replacement
induction of Brachyury (hESCs [1]; combined with Activin A): significantly increased
induction of SOX17 (hESCs [1]; combined with Activin A): significantly decreased

B1: Activin A: member of the TGF-β superfamily (protein, UniProt P08476 311-426, looked up)
Inhibin beta A chain: GLECDGKVNICCKKQFFVSFKDIGWNDWIIAPSGYHANYCEGECPSHIAGTSGSSLSFHSTVINHYRMRGHSPFANLKSCCVPTKLRPMSMLYYDDGQNIIKKDIQNMIVEECGCS
modifications: Inhibin beta A chain
notes: member of the TGF-β superfamily
induction of pancreatic cell differentiation (hESCs [3]; 5, 50 or 100 ng/ml in serum-free medium, treatment alone): cannot induce pancreatic cell differentiation
EB formation from treated hESCs (hESCs [3]; Stage 1 treatment in CDM): failed to develop
induction of MIXL1, GSC, T, SOX17 and FOXA2 (hESCs [1]; CDM, compared to undifferentiated cells in CM): significant induction
cdx2 expression at Stage 1 (hESCs [2]): essentially eliminates expression of cdx2

B2: noggin: a known BMP antagonist (protein, UniProt Q13253 28-232, looked up)
Noggin: QHYLHIRPAPSDNLPLVDLIEHPDPIFDPKEKDLNETLLRSLLGGHYDPGFMATSPPEDRPGGGGGAAGGAEDLAELDQLLRQRPSGAMPSEIKGLEFSEGLAQGKKQRLSKKLRRKLQMWLWSQTFCPVLYAWNDLGSRFWPRYVKVGSCFSKRSCSVPEGMVCKPSKSVHLTVLRWRCQRRGGQRCGWIPIQYPIISECKCSC
effect of BMP4 on endoderm- and pancreas-associated transcripts (hESCs [1]; 300 ng/ml, simultaneous incubation with 50 ng/ml BMP4): eliminated
expression of SOX17, FOXA2, Brachyury and PDX1 (hESCs [1]; added during Stage 1, read at the end of Stage 2): significantly reduced levels of expression
